Our source for the IC50 values is patent EP4553080A1, “NUCLEOSIDE DERIVATIVES AS ANTIVIRAL AGENTS AGAINST CORONAVIRUSES” (Ustav Organicke Chemie a Biochemie AV CR, v.v.i., priority 2023, dated 2025).

In this experiment the target is nsp14 methyltransferase from SARS-CoV-2 (Severe acute respiratory syndrome coronavirus 2, UniProt P0DTD1). Kind of experiment: Nsp14 MTase activity inhibition in vitro (EchoMS assay). It counts as biochemical. Conditions: recombinant nsp14 protein expressed in E. coli; dose-response curve.

Take `Cc1noc(-c2ccccc2)c1CSC[C@H]1O[C@@H](n2cc(Cc3ccccc3)c3c(N)ncnc32)[C@H](O)[C@@H]1O` [Compound 185b, (2R,3R,4S,5S)-2-(4-Amino-5-benzyl-7H-pyrrolo[2,3-d]pyrimidin-7-yl)-5-((((3-methyl-5-phenylisoxazol-4-yl)methyl)thio)methyl)tetrahydrofuran-3,4-diol]: the IC50 fell in the range of 0.1 to 0.5 µM. With `Cc1noc(-c2ccccc2)c1CSC[C@H]1O[C@@H](n2cc(Cc3ccc4ccccc4c3)c3c(N)ncnc32)[C@H](O)[C@@H]1O` [Compound 186b, (2R,3R,4S,5S)-2-(4-Amino-5-(naphthalen-2-ylmethyl)-7H-pyrrolo[2,3-d]pyrimidin-7-yl)-5-((((3-methyl-5-phenylisoxazol-4-yl)methyl)thio)methyl)tetrahydrofuran-3,4-diol] the figure was 0.5 to 2 µM; with `Cc1noc(-c2ccccc2)c1CSC[C@H]1O[C@@H](n2cc(-c3ccc(-c4cccnc4)cc3)c3c(N)ncnc32)[C@H](O)[C@@H]1O` [Compound 187], 0.03 to 0.1 µM; with `Cc1noc(-c2ccccc2)c1CSC[C@H]1O[C@@H](n2cc(-c3ccc(-c4ccccn4)cc3)c3c(N)ncnc32)[C@H](O)[C@@H]1O` [Compound 188], 0.03 to 0.1 µM. As to `Cc1noc(-c2ccccc2)c1CSC[C@H]1O[C@@H](n2cc(Sc3ccccc3)c3c(N)ncnc32)[C@H](O)[C@@H]1O` [Compound 189b, (2R,3R,4S,5S)-2-(4-Amino-5-(phenylthio)-7H-pyrrolo[2,3-d]pyrimidin-7-yl)-5-((((3-methyl-5-phenylisoxazol-4-yl)methyl)thio)methyl)tetrahydrofuran-3,4-diol], the IC50 lay within 0.03 to 0.1 µM. With `Cc1noc(-c2ccccc2)c1CSC[C@H]1O[C@@H](n2cc(SCc3ccccc3)c3c(N)ncnc32)[C@H](O)[C@@H]1O` [Compound 190b, (2R,3R,4S,5S)-2-(4-Amino-5-(benzylthio)-7H-pyrrolo[2,3-d]pyrimidin-7-yl)-5-((((3-methyl-5-phenylisoxazol-4-yl)methyl)thio)methyl)tetrahydrofuran-3,4-diol] the figure was 0.1 to 0.5 µM; with `Cc1noc(-c2ccccc2)c1CSC[C@H]1O[C@@H](n2cc(SC34CC5CC(CC(C5)C3)C4)c3c(N)ncnc32)[C@H](O)[C@@H]1O` [Compound 191, (2R,3R,4S,5S)-2-(5-((Adamantan-1-yl)thio)-4-amino-7H-pyrrolo[2,3-d]pyrimidin-7-yl)-5-((((3-methyl-5-phenylisoxazol-4-yl)methyl)thio)methyl)tetrahydrofuran-3,4-diol], 0.1 to 0.5 µM; with `Cc1noc(-c2ccccc2)c1CSC[C@H]1O[C@@H](n2ccc3c(N)nc(F)nc32)[C@H](O)[C@@H]1O` [Compound 198, (2R,3R,4S,5S)-2-(4-Amino-2-fluoro-7H-pyrrolo[2,3-d]pyrimidin-7-yl)-5-((((3-methyl-5-phenylisoxazol-4-yl)methyl)thio)methyl)tetrahydrofuran-3,4-diol], 0.03 to 0.1 µM. With `Cc1noc(-c2ccccc2)c1CSC[C@H]1O[C@@H](n2ccc3c(N)nc(Cl)nc32)[C@H](O)[C@@H]1O` [Compound 204, (2R,3R,4S,5S)-2-(4-Amino-2-chloro-7H-pyrrolo[2,3-d]pyrimidin-7-yl)-5-((((3-methyl-5-phenylisoxazol-4-yl)methyl)thio)methyl)tetrahydrofuran-3,4-diol] the figure was 0.01 to 0.03 µM.

Regarding `Cc1nc(N)c2ccn([C@@H]3O[C@H](CSCc4c(C)noc4-c4ccccc4)[C@@H](O)[C@H]3O)c2n1` [Compound 208, (2R,3R,4S,5S)-2-(4-Amino-2-methyl-7H-pyrrolo[2,3-d]pyrimidin-7-yl)-5-((((3-methyl-5-phenylisoxazol-4-yl)methyl)thio)methyl)tetrahydrofuran-3,4-diol], the IC50 fell in the range of 0.03 to 0.1 µM. With `Cc1noc(-c2ccccc2)c1CSC[C@H]1O[C@@H](n2ncc3c(N)ncnc32)[C@H](O)[C@@H]1O` [Compound 213, (2R,3R,4S,5S)-2-(4-Amino-1H-pyrazolo[3,4-d]pyrimidin-1-yl)-5-((((3-methyl-5-phenylisoxazol-4-yl)methyl)thio)methyl)tetrahydrofuran-3,4-diol] the figure was 0.03 to 0.1 µM.
